Assay results as given in US20230098569A1, “METHODS OF CONTROLLING OR PREVENTING INFESTATION OF PLANTS BY THE PHYTOPATHOGENIC MICROORGANISM CORYNESPORA CASSIICOLA” (SYNGENTA CROP PROTECTION AG, priority 2020, published 2023).

Test system: Corynespora cassiicola
Assay: Corynespora cassiicola liquid culture growth inhibition (PDB, 96-well microtiter plate, photometric at 620 nm)
Assay type: cell-based
Settings: 24 C, 3-4 days, compared to untreated control
Procedure: Conidia of the fungus from cryogenic storage were directly mixed into nutrient broth (PDB potato dextrose broth). A DMSO solution of the test compounds was placed into a microtiter plate (96-well format) and the nutrient broth containing the fungal spores was added to it. The test plates were incubated at 24 C and the inhibition of growth (% control of Corynespora cassiicola) was determined photometrically after 3-4 days at 620 nm. The activity of a compound is derived by comparing the inhibition of growth in the treated test solution to the growth in the untreated check. The concentration of the compounds was 6.7, 2.2, 0.74, 0.25, 0.082 and 0.027 ppm.

Structure (SMILES) | inhibition at 6.7 ppm
Cc1ccc2c(ncn2C2=NC(C)(C)C(F)(F)c3c(F)cccc32)c1C [Compound 4] | ≥ 70%
Cc1ccc2c(ncn2C2=NC(C)(C)C(F)(F)c3ccccc32)c1C [Compound 2] | ≥ 70%
Cc1cccc2c1ncn2C1=NC(C)(C)C(F)(F)c2cc(Cl)ccc21 [Compound 5] | ≥ 70%
CC1(C)N=C(n2cnc3c4c(ccc32)CCC4)c2ccccc2C1(F)F [Compound 6] | ≥ 70%
Cc1c(F)ccc2c1ncn2C1=NC(C)(C)C(F)(F)c2ccccc21 [Compound 3] | ≥ 70%
Cc1cccc2c1ncn2C1=NC(C)(C)C(F)(F)c2ccccc21 [Compound 1] | ≥ 70%
